Experimental data as given in patent US3971737A, “[2-Methyl-Ala^6 ]LRH” (American Home Products Corporation, priority 1975, dated 1976).
“And” between values parts separate entries of the source, which are not always exact repeats. Equal entries are not always repeated. “Also recorded” adds a separate entry of the source.

What was measured:
[1] = system: luteinizing hormone (LH) in the blood serum of ovariectomized rats; assay: LH release in ovariectomized rats pretreated with estradiol and progesterone; serum LH by radioimmunoassay; type: in vivo, rat
Method: This fact was established, in vivo, by measuring the increase of LH (before and after administration of [2-methyl-Ala^6 ]LRH) in the blood serum of ovariectomized rats pretreated with estradiol and progesterone according to the procedure of Schally et al., J. Biol. Chem. 246, 7230 (1971). The LH concentration in the blood serum was determined by radioimmunoassy according to the procedure of Berson et al., Metabolism 13, 1135 (1964). The results of this test are as follows: Dose nanograms ng LH/ml Serum % Dif- (ng) Animal No. Pre Post erence ______________________________________ 10 1 404.92 932.87 […] 10 2 541.37 1062.03 96.17 10 3 441.25 1568.03 255.43 10 4 459.07 1082.72 135.85 10 5 759.11 1681.84 111.52 No. of observations 5 5 5 Mean 523.34 1265.56 145.87 Standard error 70.34 150.08 28.28 T-value 5.1586 P-value 0.0080 ______________________________________

[2] = system: Sprague-Dawley rats (pregnancy); conditions: found by Alan Corbin (copending application Ser. No. 561,524), cited from earlier work

With CC(C)C[C@H](NC(=O)C(C)(C)NC(=O)[C@H](Cc1ccc(O)cc1)NC(=O)[C@H](CO)NC(=O)[C@H](Cc1c[nH]c2ccccc12)NC(=O)[C@H](Cc1c[nH]cn1)NC(=O)[C@@H]1CCC(=O)N1)C(=O)N[C@@H](CCCNC(=N)N)C(=O)N1CCC[C@H]1C(=O)NCC(N)=O [[2-methyl-Ala^6]LRH, L-(5-oxoprolyl)-L-histidyl-L-tryptophyl-L-seryl-L-tyrosyl-2-methylalanyl-L-leucyl-L-arginyl-L-prolylglycinamide] the “ng LH/ml Serum, Post (Mean)” value ([1]; dose 10 ng, mean of 5 ovariectomized, estradiol/progesterone-pretreated rats, after administration (pre mean 523.34), standard error 150.08) was 1265.56 ng LH/ml, the “% Difference of serum LH, pre vs post (Mean)” value ([1]; dose 10 ng, mean of 5 rats, standard error 28.28, P-value 0.0080) was 145.87% and the “% Difference of serum LH, pre vs post (individual animals No. 1-5)” value ([1]; dose 10 ng, single animals 1 to 5 in order) was 255.43% and 135.85% and 111.52% and 103.38% and 96.17%. For the same compound, the “ng LH/ml Serum, Post (individual animals No. 1-5)” value ([1]; dose 10 ng, single animals 1 to 5 in order, after administration) was 932.87 ng LH/ml and 1062.03 ng LH/ml and 1568.03 ng LH/ml and 1082.72 ng LH/ml and 1681.84 ng LH/ml, the “LH-releasing / LRH agonist activity (in words)” value ([1]; in vivo, ovariectomized rats pretreated with estradiol and progesterone) was “active releaser of luteinizing hormone (LH); also recorded: active LRH agonist” and the pregnancies prevented ([2]; 500 micrograms per day) was 100%. For the same compound, the “claudogenic/interceptive activity (in words)” value [2] was “active claudogenic/interceptive agent”.
